From patent US20250304537A1 (Repare Therapeutics Inc., priority 2022, published 2025)

Biological target: recombinant human Myt1 (full length PKMYT1) (Homo sapiens (Human), UniProt Q99640)
Experiment: Recombinant human Myt1 kinase assay (ADP-Glo)
Format: biochemical
Details: 10 μM ATP
How it was run: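 ADP-Glo luminescence measured ATP hydrolysis by recombinant full-length PKMYT1 (18 nM) after 60 min at 30 °C with 10 μM ATP. Compounds in 0.5% DMSO were added to the enzyme 15 min before ATP, at 22 °C, in HEPES/MgCl2/MnCl2 buffer. IC50 and percent maximal inhibition were derived.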

recombinant human Myt1 (full length PKMYT1), sequence (Q99640 whole entry): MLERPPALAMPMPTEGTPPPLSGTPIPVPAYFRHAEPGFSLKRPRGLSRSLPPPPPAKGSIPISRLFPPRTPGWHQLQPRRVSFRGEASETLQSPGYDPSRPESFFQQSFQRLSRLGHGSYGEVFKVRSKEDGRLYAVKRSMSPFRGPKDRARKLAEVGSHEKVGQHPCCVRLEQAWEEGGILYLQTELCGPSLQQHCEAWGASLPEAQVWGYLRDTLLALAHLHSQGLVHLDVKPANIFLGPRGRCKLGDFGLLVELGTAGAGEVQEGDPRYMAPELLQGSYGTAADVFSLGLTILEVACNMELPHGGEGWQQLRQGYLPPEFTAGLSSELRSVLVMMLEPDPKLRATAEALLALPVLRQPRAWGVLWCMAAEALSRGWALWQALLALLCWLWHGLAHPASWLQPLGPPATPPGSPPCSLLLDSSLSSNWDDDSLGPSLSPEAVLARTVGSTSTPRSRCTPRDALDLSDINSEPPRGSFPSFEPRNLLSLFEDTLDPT

SMILES | IC50
Cc1ccc2[nH]ncc2c1-c1cc(C(N)=O)nc(-c2ccccc2)n1 [Compound 76, 6-(5-methyl-1H-indazol-4-yl)-2-phenylpyrimidine-4-carboxamide] | > 2000 nM
Cc1ccc2[nH]ncc2c1-c1cc(-c2cccc(OCc3ncccn3)n2)nc(C(N)=O)c1N (atropisomer, axis not shown) [Compound 234] | 1880 nM
Cc1ccc2[nH]ncc2c1-c1cc(-c2ccnc(OCc3cc4ccccc4o3)n2)nc(C(N)=O)c1N [Compound 196] | 754 nM
Cc1ccc2[nH]ncc2c1-c1cc(-c2cccc(N3CCOCC3)n2)nc(C(N)=O)c1N [Compound 217] | 13 nM
Cc1ccc2[nH]ncc2c1-c1nc(-c2ccccc2N)nc(C(N)=O)c1N [Compound 319] | 48 nM
Cc1ccc2[nH]ncc2c1-c1nc(-c2cccc(N3CCCC3)c2)nc(C(N)=O)c1N [Compound 142] | 54 nM
Cc1ccc2[nH]ncc2c1-c1nc(-c2cccc(N(C)C)c2)nc(C(N)=O)c1N [Compound 139] | 57 nM
Cc1ccc2[nH]ncc2c1-c1nc(-c2cccc(Oc3ccc(F)cc3)c2)nc(C(N)=O)c1N [Compound 287] | 62 nM
Cc1ccc2[nH]ncc2c1-c1nc(-c2cccc(CNc3ncccn3)c2)nc(C(N)=O)c1N [Compound 295] | 27 nM
CCC(COc1cccc(-c2cc(-c3c(C)ccc4[nH]ncc34)c(N)c(C(N)=O)n2)c1)OC (stereo not shown) [Compound 360] | 330 nM
Cc1ccc2[nH]ncc2c1-c1cc(-c2ccnc(OC3CN(C(=O)OC(C)(C)C)C3)n2)nc(C(N)=O)c1N [Compound 193] | 191 nM
Cc1ccc2[nH]ncc2c1-c1cc(-c2ccnc(N3CCCC(O)C3)n2)nc(C(N)=O)c1N (stereo not shown) [Compound 367] | 9 nM
Cc1ccc(O)cc1-c1nc(C(N)=O)c(N)c(-c2cc(O)ccc2C)n1 [Compound 12] | 246 nM
Cc1ccc(O)cc1-c1nc(-c2cccnc2)nc(C(N)=O)c1N [Compound 21] | 202 nM
Cc1ccc2[nH]ncc2c1-c1nc(-c2cccc3nnsc23)nc(C(N)=O)c1N [Compound 390] | 5 nM
Cc1ccc2[nH]ncc2c1-c1cc(-c2ccn(C)n2)nc(C(N)=O)c1N [Compound 171] | 96 nM
CC(=O)Nc1cccc(-c2nc(C(N)=O)c(N)c(-c3c(C)ccc4[nH]ncc34)n2)c1 [Compound 298] | 15 nM
Cc1ccc2[nH]ncc2c1-c1cc(-c2cccc(OC[C@H]3CCCO3)n2)nc(C(N)=O)c1N (atropisomer, axis not shown) [Compound 388] | 643 nM
CO[C@@H](COc1cccc(-c2cc(-c3c(C)ccc4[nH]ncc34)c(N)c(C(N)=O)n2)n1)C1CC1 (atropisomer, axis not shown) [Compound 363] | 4 nM
Cc1ccc2[nH]ncc2c1-c1cc(-c2ccnc(OCCn3cccn3)n2)nc(C(N)=O)c1N [Compound 329] | 14 nM
Cc1ccc(O)cc1-c1nc(-c2ccc(N3CCOCC3)cc2)nc(C(N)=O)c1N [Compound 37] | 42 nM
CCS(=O)(=O)c1ccccc1-c1nc(C(N)=O)c(N)c(-c2c(C)ccc3[nH]ncc23)n1 [Compound 800] | 1010 nM
NC(=O)c1nc(-c2cccnc2)cc(-c2c(C(F)(F)F)ccc3[nH]ncc23)c1N [Compound 325] | > 2000 nM
Cc1ccc(O)cc1-c1nc(-c2ccncc2)nc(C(N)=O)c1N [Compound 24] | 18 nM
Cc1ccc2[nH]ncc2c1-c1nc(-c2cccc(OCC(=O)O)c2)nc(C(N)=O)c1N [Compound 294] | 17 nM
COc1cccc(-c2cccc(-c3cc(-c4c(C)ccc5[nH]ncc45)c(N)c(C(N)=O)n3)n2)c1 [Compound 340, 5-amino-6′-(3-methoxyphenyl)-4-(5-methyl-1H-indazol-4-yl)-[2,2′-bipyridine]-6-carboxamide] | > 2000 nM
Cc1ccc2[nH]ncc2c1-c1cc(-c2cccnc2)nc(C(N)=O)c1N [Compound 97] | 54 nM
Cc1ccc2[nH]ncc2c1-c1nc(-c2ccc3cnn(C)c3c2)nc(C(N)=O)c1N [Compound 119] | 25 nM
